Results: PMC10095932 (Molecules, 2023)
Read-outs that look alike come from different tables or passages of the source. Where a SMILES comes first, the peptide text is derived from it. Bridges are numbered along the chain shown (N, C = ends).

Legend:
[1] = target: T1, rat NPR-A (Rattus norvegicus, UniProt P18910); experiment: cGMP ALPHAscreen, cGMP production in PC12 cells; type: cell-based; conditions: for EC50: PC12 cells, cGMP ALPHAscreen
T1 construct: endogenous in cells; host or cells: rat PC12 cells
T1 sequence (P18910 29-1057): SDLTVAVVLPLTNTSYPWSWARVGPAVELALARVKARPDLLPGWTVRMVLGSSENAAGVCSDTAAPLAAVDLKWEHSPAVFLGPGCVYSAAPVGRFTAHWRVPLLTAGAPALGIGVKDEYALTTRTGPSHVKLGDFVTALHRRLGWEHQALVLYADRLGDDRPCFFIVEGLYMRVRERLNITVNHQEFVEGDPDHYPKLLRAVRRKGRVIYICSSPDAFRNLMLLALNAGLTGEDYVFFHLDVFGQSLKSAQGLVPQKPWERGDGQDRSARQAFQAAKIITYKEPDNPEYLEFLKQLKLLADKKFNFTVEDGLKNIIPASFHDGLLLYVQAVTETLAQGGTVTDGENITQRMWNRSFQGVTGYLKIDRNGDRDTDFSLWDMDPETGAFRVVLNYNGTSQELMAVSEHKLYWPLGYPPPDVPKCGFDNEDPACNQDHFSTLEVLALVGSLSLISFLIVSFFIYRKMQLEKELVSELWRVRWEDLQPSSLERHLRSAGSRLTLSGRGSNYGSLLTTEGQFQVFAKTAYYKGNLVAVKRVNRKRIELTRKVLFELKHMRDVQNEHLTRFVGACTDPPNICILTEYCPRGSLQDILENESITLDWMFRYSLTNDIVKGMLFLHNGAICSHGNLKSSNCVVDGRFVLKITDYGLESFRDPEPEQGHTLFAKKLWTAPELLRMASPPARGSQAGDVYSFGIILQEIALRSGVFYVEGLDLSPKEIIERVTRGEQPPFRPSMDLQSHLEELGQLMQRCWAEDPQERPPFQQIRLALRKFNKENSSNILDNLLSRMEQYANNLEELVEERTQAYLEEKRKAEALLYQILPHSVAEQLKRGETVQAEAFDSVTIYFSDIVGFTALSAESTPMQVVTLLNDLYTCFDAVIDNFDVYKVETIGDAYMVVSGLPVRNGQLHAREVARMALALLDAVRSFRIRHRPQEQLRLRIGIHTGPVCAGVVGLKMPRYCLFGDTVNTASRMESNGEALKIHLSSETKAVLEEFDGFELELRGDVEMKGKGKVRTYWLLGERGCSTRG
Method: NP activity can be determined by the effectiveness of the peptide to elicit cGMP production through NPR-A. The cGMP ALPHAscreen evaluates the ability of peptides to stimulate cGMP production in cells through a non-radioactive, homogenous, proximity assay which encompasses […]. […] In order to evaluate the potency of TNPa-e at rNPR-A, TNPa-e were evaluated using the cGMP ALPHAscreen in rat PC12 cells.
(§1) Cells were cultured at 5% CO2 and 37 °C. HEK 293 cells were cultured in high glucose DMEM (Gibco, Carlsbad, CA, USA) supplemented with 10% FBS, and 1% penicillin/streptomycin. HEK 293 cells were seeded in media lacking penicillin/streptomycin 24 to 48 h pre-transfection. PC12 cells were cultured in high glucose DMEM (Gibco) supplemented with 10% FBS and 1% penicillin/streptomycin.
(§2) The cGMP ALPHAscreen was performed using the ALPHAscreen Protein A detection kit and the biotinylated cGMP supplement (Perkin Elmer, Waltham, MA, USA) with rabbit anti-cGMP polyclonal antibody (Biovision, Mountain View, CA, USA). Cells were detached from the flask and the resulting pellet was resuspended in stimulation buffer (HBSS supplemented with 0.1% w/v BSA and 1 mM IBMX at 37 °C). Cells were added to a white 384-well Optiplate (Perkin Elmer, Waltham, USA) to 30,000 cells per well for HEK 293 cells and 10,000 cells per well for PC12 cells. Cells were incubated with different concentrations of test peptides (concentration range of 1 × 10^−5 to 1 × 10^−11 M in stimulation buffer) at 37 °C for 30 min. Cells were lysed with lysis buffer (1 M HEPES, 0.3% Tween-20, 1% BSA in H2O, pH 7.4). Then 5 μL acceptor-bead mix was added to each well under subdued lighting conditions, followed by 5 μL of donor-bead mix. Plates were incubated for ~12 h, slowly shaking at room temperature. After incubation, the ALPHAscreen signal was measured using an EnVision plate reader (Perkin Elmer). The standard curve consisted of cGMP in a concentration range of 1 × 10^−6 to 1 × 10^−12 M. All data points were acquired in triplicate and were analyzed using GraphPad Prism 5.0 software (GraphPad Software, Inc., San Diego, CA, USA).

[2] = target: T2, human NPR-A (Homo sapiens, UniProt P16066); experiment: cGMP ALPHAscreen, cGMP production in HEK 293 cells transiently overexpressing hNPR-A; type: cell-based; conditions: HEK 293 cells overexpressing hNPR-A; for Emax at 10 µM: HEK293, read-out: cGMP production, % of the maximum response (compared with DNP, hANP, hBNP); for EC50: 30 min at 37 °C, cGMP ALPHAscreen, three separate experiments in triplicate, read-out: hNPR-A EC50 (95% CI), potency to stimulate cGMP production
T2 construct: expressed in transfected cells; host or cells: HEK 293 cells, transient, Lipofectamine 2000
T2 sequence (P16066 33-1061): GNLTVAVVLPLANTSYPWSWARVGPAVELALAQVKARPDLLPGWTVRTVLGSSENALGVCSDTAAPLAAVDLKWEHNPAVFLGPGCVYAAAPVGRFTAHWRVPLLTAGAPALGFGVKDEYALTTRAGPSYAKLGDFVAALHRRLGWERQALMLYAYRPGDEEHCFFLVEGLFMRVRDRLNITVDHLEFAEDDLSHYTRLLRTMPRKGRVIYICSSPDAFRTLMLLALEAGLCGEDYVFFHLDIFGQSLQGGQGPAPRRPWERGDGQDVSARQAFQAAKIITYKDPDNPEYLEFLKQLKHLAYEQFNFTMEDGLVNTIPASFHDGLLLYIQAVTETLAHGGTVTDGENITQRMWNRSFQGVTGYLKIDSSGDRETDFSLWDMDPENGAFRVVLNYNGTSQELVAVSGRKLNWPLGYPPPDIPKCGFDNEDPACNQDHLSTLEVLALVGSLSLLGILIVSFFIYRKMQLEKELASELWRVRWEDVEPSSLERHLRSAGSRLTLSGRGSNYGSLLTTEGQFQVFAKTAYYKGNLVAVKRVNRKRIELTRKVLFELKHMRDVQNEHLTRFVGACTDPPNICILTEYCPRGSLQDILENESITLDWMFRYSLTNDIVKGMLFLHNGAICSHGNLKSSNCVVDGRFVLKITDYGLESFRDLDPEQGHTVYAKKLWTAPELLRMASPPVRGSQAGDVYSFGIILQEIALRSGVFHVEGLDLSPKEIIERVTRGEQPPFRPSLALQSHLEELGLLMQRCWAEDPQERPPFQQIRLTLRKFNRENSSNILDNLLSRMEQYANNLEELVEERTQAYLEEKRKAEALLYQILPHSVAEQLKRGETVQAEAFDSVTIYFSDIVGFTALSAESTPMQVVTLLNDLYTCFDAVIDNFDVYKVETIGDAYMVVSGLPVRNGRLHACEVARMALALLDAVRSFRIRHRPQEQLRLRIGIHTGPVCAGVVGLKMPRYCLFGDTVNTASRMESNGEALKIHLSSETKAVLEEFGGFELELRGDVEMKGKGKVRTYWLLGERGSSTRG
Method: as §1
HEK 293 cells were transfected using the lipofectamine 2000 transfection protocol (Invitrogen). Cells (95% confluence) were transfected with 45% pcDNA3.1/hNPR-A, 45% pcDNA3.1, and 10% pEGFP-NI to the optimal DNA concentration specified in the protocol. The co-transfection with pEGFP-NI plasmid allowed the determination of the transfection efficiency. This was assessed by the estimation of the number of GFP-expressing cells using an Olympus IX70 inverted fluorescence microscope. Transfected cells were used for assay purposes within 24 h.
as §2

[3] = 30 min at 37 °C, three to five separate experiments in triplicate, read-out: rNPR-A EC50 (95% CI), potency to stimulate cGMP production

| Compound | EC50 [1, 3] [µM] | EC50 ([1]; read-out: EC50 at rNPR-A) [µM] | Emax at 10 µM [2] [%] | EC50 [2] [µM] | selectivity / difference in potency for rNPR-A over hNPR-A ([1]; rNPR-A (PC12) versus hNPR-A (HEK 293) cGMP potency) [fold] |
| --- | --- | --- | --- | --- | --- |
| CC[C@H](C)[C@H](NC(=O)[C@H](CCCCN)NC(=O)[C@H](CO)NC(=O)[C@H](CC(=O)O)NC(=O)[C@@H](N)CO)C(=O)NCC(=O)N[C@@H](CC(=O)O)C(=O)NCC(=O)N[C@H]1CSSC[C@@H](C(=O)N[C@@H](CC(N)=O)C(=O)N[C@@H](CCCNC(=N)N)C(=O)N2CCC[C@H]2C(=O)N[C@H](C(=O)N[C@@H](CCC(N)=O)C(=O)N[C@@H](CC(N)=O)C(=O)N[C@@H](CCCNC(=N)N)C(=O)N2CCC[C@H]2C(=O)N[C@@H](CCCCN)C(=O)N[C@@H](CCCCN)C(=O)O)C(C)C)NC(=O)CNC(=O)[C@H](CC(C)C)NC(=O)CNC(=O)[C@H](CO)NC(=O)[C@H](C(C)C)NC(=O)[C@H](CO)NC(=O)CNC(=O)[C@H]([C@@H](C)CC)NC(=O)[C@H](Cc2c[nH]cn2)NC(=O)[C@H](CC(=O)O)NC(=O)[C@H](CC(C)C)NC(=O)[C@@H]2CCCN2C(=O)[C@H](CC(C)C)NC(=O)CNC(=O)[C@H](Cc2ccccc2)NC1=O [TNPa] (H-SDSKIGDGCFGLPLDHIGSVSGLGCNRPVQNRPKK-OH; disulfide 9-25) | 2.02 | > 1 | < 20 | > 10 |  |
| CC[C@H](C)[C@@H]1NC(=O)[C@H](Cc2c[nH]cn2)NC(=O)[C@H](CC(=O)O)NC(=O)[C@H](CC(C)C)NC(=O)[C@@H]2CCCN2C(=O)[C@H](CC(C)C)NC(=O)CNC(=O)[C@H](Cc2ccccc2)NC(=O)[C@@H](NC(=O)CNC(=O)[C@H](CC(=O)O)NC(=O)CNC(=O)[C@@H](NC(=O)[C@H](CCCCN)NC(=O)[C@@H]2CCCN2C(=O)[C@H](CC(=O)O)NC(=O)[C@@H](N)CO)[C@@H](C)CC)CSSC[C@@H](C(=O)N[C@@H](CC(N)=O)C(=O)N[C@@H](CCCNC(=N)N)C(=O)N2CCC[C@H]2C(=O)N[C@H](C(=O)N[C@@H](CCC(N)=O)C(=O)N[C@@H](CC(N)=O)C(=O)N[C@@H](CCCNC(=N)N)C(=O)N2CCC[C@H]2C(=O)N[C@@H](CCCCN)C(=O)N[C@@H](CCCCN)C(=O)O)C(C)C)NC(=O)CNC(=O)[C@H](CC(C)C)NC(=O)CNC(=O)[C@H](CO)NC(=O)[C@H](C(C)C)NC(=O)[C@H](CO)NC(=O)CNC1=O [TNPb] (H-SDPKIGDGCFGLPLDHIGSVSGLGCNRPVQNRPKK-OH; disulfide 9-25) | 1.2 | > 1 | ~30 | > 10 |  |
| CC[C@H](C)[C@@H]1NC(=O)[C@H](CCCNC(=N)N)NC(=O)[C@H](CC(=O)O)NC(=O)[C@H]([C@@H](C)CC)NC(=O)[C@@H]2CCCN2C(=O)[C@H](Cc2ccccc2)NC(=O)CNC(=O)[C@H](Cc2ccccc2)NC(=O)[C@@H](NC(=O)CNC(=O)[C@H](CC(N)=O)NC(=O)CNC(=O)[C@@H](NC(=O)[C@H](CCCCN)NC(=O)[C@@H]2CCCN2C(=O)[C@H](CC(=O)O)NC(=O)[C@@H](N)CO)[C@@H](C)CC)CSSC[C@@H](C(=O)N[C@@H](CC(N)=O)C(=O)N[C@@H](CCCNC(=N)N)C(=O)N[C@@H](CC(C)C)C(=O)N[C@H](C(=O)N[C@@H](CCC(N)=O)C(=O)N[C@@H](CC(N)=O)C(=O)N2CCC[C@H]2C(=O)N2CCC[C@H]2C(=O)N[C@@H](CCCCN)C(=O)N2CCC[C@H]2C(=O)N[C@H](C(=O)N[C@@H](CO)C(=O)NCC(=O)N[C@@H](CCC(=O)O)C(=O)N[C@@H](CO)C(=O)O)[C@@H](C)CC)C(C)C)NC(=O)CNC(=O)[C@H](CC(C)C)NC(=O)CNC(=O)[C@H](CO)NC(=O)[C@H](C(C)C)NC(=O)[C@H](CO)NC(=O)CNC1=O [TNPd] (H-SDPKIGNGCFGFPIDRIGSVSGLGCNRLVQNPPKPISGES-OH; disulfide 9-25) | 0.018 |  | ~30 | > 10 | 560 |
